Test results: patent US11377441B2, “Covalent inhibitors of KRAS” (Araxes Pharma LLC, priority 2017, dated 2022)

Target: T1, KRAS G12C 1-169, his-tagged protein, GDP-loaded (Homo sapiens, UniProt P01116, G12C)
T1 construct: KRAS G12C 1-169, his-tagged protein, GDP-loaded
Assay: Biochemical assay: covalent modification of KRAS G12C measured by mass spectrometry (RapidFire/TOF or Q-Exactive)
Assay type: binding
Settings: covalent binding to (modification of) KRAS G12C after a ten minute incubation period
Procedure, shortened: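 GDP-loaded KRAS G12C 1-169 (his-tagged) at 2 μM or 0.5 μM in 20 mM Hepes, 150 mM NaCl, 1 mM MgCl2, incubated with compound at 100, 30 or 10 μM at room temperature for 10 min, 30 min, 2 h or 24 h, then quenched with formic acid. Intact-protein LC-MS, deconvolved; percent modification from modified versus unmodified protein.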

Structure (SMILES) | Binding %
C=CC(=O)N1C[C@H](C)N(c2nc(OC[C@@H]3C[C@H](OC)CN3C)nc3c(F)c(-c4c(C)ccc5cnn(C)c45)c(Cl)cc23)C[C@H]1C [Compound 197, 1-((2R,5S)-4-(6-chloro-7-(1,6-dimethyl-1H-indazol-7-yl)-8-fluoro-2-(((2S,4S)-4-methoxy-1-methylpyrrolidin-2-yl)methoxy)quinazolin-4-yl)-2,5-dimethylpiperazin-1-yl)prop-2-en-1-one] | +++ (+++ indicates binding activity greater than 80%)
C=CC(=O)N1C[C@H](C)N(c2nc(NC(=O)CN(C)C)nc3c(F)c(-c4c(C)ccc5cnn(C)c45)c(Cl)cc23)C[C@H]1C [Compound 260, N-(4-((2S,5R)-4-acryloyl-2,5-dimethylpiperazin-1-yl)-6-chloro-7-(1,6-dimethyl-1H-indazol-7-yl)-8-fluoroquinazolin-2-yl)-2-(dimethylamino)aceta-mide] | +++ (+++ indicates binding activity greater than 80%)
C=CC(=O)N1C[C@H](C)N(c2nc(OCCN3CC[C@H](F)C3)nc3c(F)c(-c4c(C)ccc5[nH]nc(N)c45)c(Cl)cc23)C[C@H]1C [Compound 109, 1-((2R,5S)-4-(7-(3-amino-5-methyl-1H-indazol-4-yl)-6-chloro-8-fluoro-2-(2-((S)-3-fluoropyrrolidin-1-yl)ethoxy)quinazolin-4-yl)-2,5-dimethylpiperazin-1-yl)prop-2-en-1-one] | +++ (+++ indicates binding activity greater than 80%)
C=CC(=O)N1C[C@@H](C)N(c2nc(N3CC(N(C)C)C3)nc3c(F)c(-c4c(C)ccc5[nH]nc(C6CC6)c45)c(Cl)cc23)C[C@@H]1C (atropisomer, axis not shown) [Compound 252, 1-((2S,5R)-4-((S)-6-chloro-7-(3-cyclopropyl-5-methyl-1H-indazol-4-yl)-2-(3-(dimethylamino)azetidin-1-yl)-8-fluoroquinazolin-4-yl)-2,5-dimethylpiperazin-1-yl)prop-2-en-1-one] | + (+ indicates binding activity greater than 0% and up to 50%)
C=CC(=O)N1C[C@H](C)N(c2nc(N3CC(NC)C3)nc3c(F)c(-c4c(C)ccc5[nH]nc(C6CC6)c45)c(Cl)cc23)C[C@H]1C [Compound 129, 1-((2R,5S)-4-(6-chloro-7-(3-cyclopropyl-5-methyl-1H-indazol-4-yl)-8-fluoro-2-(3-(methylamino)azetidin-1-yl)quinazolin-4-yl)-2,5-dimethylpiperazin-1-yl)prop-2-en-1-one] | +++ (+++ indicates binding activity greater than 80%)
C=CC(=O)N1C[C@H](C)N(c2nc(OCCN3CCC(F)CC3)nc3c(F)c(-c4c(C)ccc5[nH]nc(C)c45)c(Cl)cc23)C[C@H]1C [Compound 164, 1-((2R,5S)-4-((R)-6-chloro-7-(3,5-dimethyl-1H-indazol-4-yl)-8-fluoro-2-(2-(4-fluoropiperidin-1-yl)ethoxy)quinazolin-4-yl)-2,5-dimethylpiperazin-1-yl)prop-2-en-1-one] | +++ (+++ indicates binding activity greater than 80%)
C=CC(=O)N1C[C@H](C)N(c2nc(N3CC(N(C)C)C3)nc3c(F)c(-c4c(C)ccc5[nH]nc(N)c45)c(Cl)cc23)C[C@H]1C (atropisomer, axis not shown) [Compound 90, 1-((2R,5S)-4-((S)-7-(3-amino-5-methyl-1H-indazol-4-yl)-6-chloro-2-(3-(dimethylamino)azetidin-1-yl)-8-fluoroquinazolin-4-yl)-2,5-dimethylpiperazin-1-yl)prop-2-en-1-one] | + (+ indicates binding activity greater than 0% and up to 50%)
C=CC(=O)N1C[C@H](C)N(c2nc(OCCN3CCN(C)CC3)nc3c(F)c(-c4c(C)ccc5cnn(C)c45)c(Cl)cc23)C[C@H]1C (atropisomer, axis not shown) [Compound 168, 1-((2R,5S)-4-((S)-6-chloro-7-(1,6-dimethyl-1H-indazol-7-yl)-8-fluoro-2-(2-(4-methylpiperazin-1-yl)ethoxy)quinazolin-4-yl)-2,5-dimethylpiperazin-1-yl)prop-2-en-1-one] | + (+ indicates binding activity greater than 0% and up to 50%)
C=CC(=O)N1[C@H](C)CN(c2nc(N3CC(N(C)C)C3)nc3c(F)c(-c4c(C)ccc5[nH]nc(N)c45)c(Cl)cc23)C[C@@H]1C [Compound 41, 1-((2S,6R)-4-(7-(3-amino-5-methyl-1H-indazol-4-yl)-6-chloro-2-(3-(dimethylamino)azetidin-1-yl)-8-fluoroquinazolin-4-yl)-2,6-dimethylpiperazin-1-yl)prop-2-en-1-one] | +++ (+++ indicates binding activity greater than 80%)
C=CC(=O)N1CCN(c2nc(N3CC(N(C)C)C3)nc3c(F)c(-c4c(C)ccc5[nH]nc(C6CC6)c45)c(Cl)cc23)CC1 (atropisomer, axis not shown) [Compound 103, (S)-1-(4-(6-chloro-7-(3-cyclopropyl-5-methyl-1H-indazol-4-yl)-2-(3-(dimethylamino)azetidin-1-yl)-8-fluoroquinazolin-4-yl)piperazin-1-yl)prop-2-en-1-one] | + (+ indicates binding activity greater than 0% and up to 50%)
C=CC(=O)N1C[C@H](C)N(c2nc(OCCN3CCC(F)(F)C3)nc3c(F)c(-c4c(C)ccc5[nH]nc(N)c45)c(Cl)cc23)C[C@H]1C (atropisomer, axis not shown) [Compound 67, 1-((2R,5S)-4-((R)-7-(3-amino-5-methyl-1H-indazol-4-yl)-6-chloro-2-(2-(3,3-difluoropyrrolidin-1-yl)ethoxy)-8-fluoroquinazolin-4-yl)-2,5-dimethylpiperazin-1-yl)prop-2-en-1-one] | +++ (+++ indicates binding activity greater than 80%)
C=CC(=O)N1C[C@H](C)N(c2nc(N3CC(N(C)C)C3)nc3c(F)c(-c4c(C)ccc5[nH]nc(NCC)c45)c(Cl)cc23)C[C@H]1C [Compound 46, 1-((2R,5S)-4-(6-chloro-2-(3-(dimethylamino)azetidin-1-yl)-7-(3-(ethylamino)-5-methyl-1H-indazol-4-yl)-8-fluoroquinazolin-4-yl)-2,5-dimethylpiperazin-1-yl)prop-2-en-1-one] | ++ (++ indicates binding activity from 50 to 80%)
C=CC(=O)N1C[C@H](C)N(c2nc(N3CC(N(C)C)C3)nc3c(F)c(N4CCCc5ccccc54)c(Cl)cc23)C[C@H]1C [Compound 265, 1-((2R,5S)-4-(6-chloro-7-(3,4-dihydroquinolin-1(2H)-yl)-2-(3-(dimethylamino)azetidin-1-yl)-8-fluoroquinazolin-4-yl)-2,5-dimethylpiperazin-1-yl)prop-2-en-1-one] | ++ (++ indicates binding activity from 50 to 80%)
C=CC(=O)N1C[C@H](C)N(c2nc(N3CC(N(C)C)C3)nc3c(F)c(-c4c(C)ccc5c4NC(=O)C5)c(Cl)cc23)C[C@H]1C [Compound 263, 7-(4-((2S,5R)-4-acryloyl-2,5-dimethylpiperazin-1-yl)-6-chloro-2-(3-(dimethylamino)azetidin-1-yl)-8-fluoroquinazolin-7-yl)-6-methylindolin-2-one] | + (+ indicates binding activity greater than 0% and up to 50%)
C=CC(=O)N1C[C@H](C)N(c2nc(OC3CCN(C(C)C)CC3)nc3c(F)c(-c4c(C)ccc5cnn(C)c45)c(Cl)cc23)C[C@H]1C (atropisomer, axis not shown) [Compound 166, 1-((2R,5S)-4-((S)-6-chloro-7-(1,6-dimethyl-1H-indazol-7-yl)-8-fluoro-2-(1-isopropylpiperidin-4-yloxy)quinazolin-4-yl)-2,5-dimethylpiperazin-1-yl)prop-2-en-1-one] | + (+ indicates binding activity greater than 0% and up to 50%)
C=CC(=O)N1C[C@H](C)N(c2nc(N3CC(NC)C3)nc3c(F)c(-c4c(C)ccc5cnn(C6CC6)c45)c(Cl)cc23)C[C@H]1C (atropisomer, axis not shown) [Compound 207, 1-((2R,5S)-4-((S)-6-chloro-7-(1-cyclopropyl-6-methyl-1H-indazol-7-yl)-8-fluoro-2-(3-(methylamino)azetidin-1-yl)quinazolin-4-yl)-2,5-dimethylpiperazin-1-yl)prop-2-en-1-one] | + (+ indicates binding activity greater than 0% and up to 50%)
[2H]C([2H])([2H])N(C1CN(c2nc(N3C[C@@H](C)N(C(=O)C=C)C[C@@H]3C)c3cc(Cl)c(-c4c(C)ccc5cnn(C)c45)c(F)c3n2)C1)C([2H])([2H])[2H] (atropisomer, axis not shown) [Compound 212, 1-((2R,5S)-4-((R)-6-chloro-7-(1,6-dimethyl-1H-indazol-7-yl)-2-(3-(di-perdeuteromethylamino)azetidin-1-yl)-8-fluoroquinazolin-4-yl)-2,5-dimethylpiperazin-1-yl)prop-2-en-1-one] | +++ (+++ indicates binding activity greater than 80%)
[2H]C([2H])([2H])N(C1CN(c2nc(N3C[C@@H](C)N(C(=O)C=C)C[C@@H]3C)c3cc(Cl)c(-c4c(C)ccc5cnn(C6CC6)c45)c(F)c3n2)C1)C([2H])([2H])[2H] [Compound 213, 1-((2R,5S)-4-((S)-6-chloro-7-(1-cyclopropyl-6-methyl-1H-indazol-7-yl)-2-(3-(di-perdeuteromethylamino)azetidin-1-yl)-8-fluoroquinazolin-4-yl)-2,5-dimethylpiperazin-1-yl)prop-2-en-1-one] | + (+ indicates binding activity greater than 0% and up to 50%)
C=CC(=O)N1C[C@H](C)N(c2nc(OCC(C)(C)N(C)C)nc3c(F)c(-c4c(C)ccc5[nH]nc(C)c45)c(Cl)cc23)C[C@H]1C [Compound 226, 1-((2R,5S)-4-(6-chloro-7-(3,5-dimethyl-1H-indazol-4-yl)-2-(2-(dimethylamino)-2-methylpropoxy)-8-fluoroquinazolin-4-yl)-2,5-dimethylpiperazin-1-yl)prop-2-en-1-one] | ++ (++ indicates binding activity from 50 to 80%)
